Measurements: patent US20100190849A1, “Novel Clerodanes and Methods for Repelling Arthropods” (priority 2006, published 2010)

Tests used:
[1] = system: Aedes aegypti; test: Total mosquito toxic knockdown after K & D module exposure (Experiment 8); format: in vivo; conditions: Exp. 8, 25 nmol/cm^2 cloth; for Total Knock down 6 min: dead mosquitoes 6 min post-treatment exposure; for Total knock down 1 hr: dead mosquitoes 1 hr post-treatment exposure; for Total knock down 24 hr: dead mosquitoes 24 hr post-treatment exposure
Description: Plant extracts, fractions, or isolated pure plant derived compounds in 95% ethanol solution were each randomly applied to six-4×5 cm areas of organdy cloth and positioned over the membrane-covered blood. A replicate consisted of six treatments: four test chemicals or extract fractions, 95% ethanol treated cloth as control and unfractionated plant extract or a standard repellent compound, (1S, 2′S)-2-methylpiperidinyl-3-cyclohexen-1-carboxamide (SS220) at 25 nmol/cm^2 cloth. The 25 nmol SS220/cm^2 cloth dose was used as a standard, because it was known from human volunteer and in vitro assays to consistently suppress mosquito biting by 80% or more compared to controls in replicated assays (Klun, J. A., et al., Journal of the American Mosquito Control Association, 21: 64-70 (2005)). […] Routinely, a six-celled K & D module containing five mosquitoes/cell was positioned over cloth treatments covering the six blood-membrane wells, and trap doors of the K&D modules were opened to expose the treatments to the sets of mosquitoes. After a 3 minute exposure, the number of mosquitoes biting through cloth treatments in each cell was recorded and mosquitoes were prodded back into the cells. In Experiment 8, we retained all mosquitoes in their respective K&D module cells, each fitted with a water-moist piece of cotton, and observed the mosquitoes for total mosquito toxic knockdown at 6 min, 1 hr, and 24 hr post-treatment exposure. Experiments were replicated 12, 18, 32, or 56 times. Thus, 60, 90, 160. or 280 mosquitoes were tested against each treatment depending on the experiment, and the proportion of mosquitoes not biting for each treatment was calculated. For each experiment, conducted in different time periods, logistic regression was used to make two sets of one degree-of-freedom contrasts (t-tests): treatments vs. control and treatments vs. SS220 for anti-biting activity within each experiment. The level of significance was set at P=0.05. In all, we conducted 8 biological experiments, and all experiments used Ae. aegypti as the test mosquito with exception of Experiment 7 which used An. stephensi.
Experiment 8: This experiment (12 replicates) compared the antibiting activities of a mixture (25 nmol/cm^2 cloth) of 11.5% callicarpenal, 47.1% intermedeol, and 41.4% spathulenol. The percentage composition of the mixture was a normalized percentage of active components in C. japonica essential oil based upon GC-MS analysis total ion Area % analysis based on largest peaks. Other treatments in the experiment were SS220, callicarpenal, intermedeol, and spathulenol each at 25 nmol/cm^2 cloth versus control. In addition to measurement of anti-biting activity, the number of dead mosquitoes observed at three time intervals were recorded for the six treatments.

[2] = system: S. invicta; test: Two-choice digging bioassay, head-to-head against octanoic acid; format: in vivo, Solenopsis invicta; conditions: 25.00 ppm; both S. invicta colonies; FIGS. 3 and 4
Description: The repellency of the two terpenoids, callicarpenal and intermedeol, against workers of red imported fire ants, Solenopsis invicta Buren, black imported fire ants, Solenopsis rickeri Forel, and a hybrid of these two species was evaluated using multiple-choice digging bioassays (Tables 9 & 10). […] Callicarpenal and intermedeol were compared with octanoic acid, a known fire ant repellant, at the 25.00 ppm level using two-choice digging bioassays (FIGS. 3 and 4).
Head-to-head comparison on repellency of callicarpenal and intermedeol against octanoic acid: The bioassay apparatus was similar as described above, except a smaller Petri dish (8.7×2.3 cm) was used and only two choices were presented: one was sand treated with callicarpenal or intermedeol and the other with octanoic acid. Two choices were opposite each other across the center of the Petri dish and each was 3.0 cm away from the center. All compounds were tested at a 25.00 ppm level. Sand preparation was similar as described above. Ants from the same colonies as above were used in this experiment. There were five replications for each pair of comparisons. A paired t-test (critical P-value=0.05) was used to compare the mean amount of sand removed between two tubes.

SMILES: CC1=CCC[C@@H]2[C@@](C)(CC=O)[C@H](C)CC[C@@]12C [callicarpenal, 13,14,15,16-tetranorclerod-3-en-12-al]
- Total Knock down 6 min [1]: 0
- Total knock down 1 hr [1]: 1
- Total knock down 24 hr [1]: 5
- repellency compared with octanoic acid (in words) [2]: no significant difference

SMILES: C=C(C)C1CCC2(C)CCCC(C)(O)C2C1 [intermedeol, (4S,5S,7R,10S)-eudesm-11-en-4-ol]
- Total Knock down 6 min [1]: 1
- Total knock down 1 hr [1]: 1
- Total knock down 24 hr [1]: 2
- repellency compared with octanoic acid (in words) [2]: significantly greater repellency than octanoic acid
